Among the test systems are IGROV1 ovarian; OVCAR-8 ovarian; DU-145 prostate; 786-0 renal; UACC-62 melanoma; PC-3 prostate; HCC-2998 colon; T-47D breast; UO-31 renal; NCI-H226 lung.
Common to all, as to assay: NCI tumour cell line growth inhibition, 48 h

The structures appear in SMILES notation.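 Values below derive from 48-hour exposures of cells grown in 96-well plates, with endpoints linearly interpolated between the two concentrations bracketing the appropriate inhibition level. GI50: concentration for 50% inhibition of growth. TGI marks complete inhibition of growth.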

The record followed here is PubChem BioAssay (NCI).

On to `CCC(C)/C=C(C)/C=C/C(=O)c1c(O)c(-c2ccc(O)cc2)c[nH]c1=O` (stereo not given), for which the GI50 in the experiment with IGROV1 ovarian was 2.59 µM; with OVCAR-8 ovarian, 3.12 µM; with DU-145 prostate it was 2.87 µM; with 786-0 renal it was 4.33 µM; with UACC-62 melanoma, 3.73 µM; with PC-3 prostate it was 3.33 µM. Besides, the GI50 with HCC-2998 colon was 3.75 µM; with T-47D breast, 3.22 µM; with UO-31 renal, 2.16 µM; in the experiment on NCI-H226 lung, 8.07 µM. For the same compound, the TGI turned out to be 15 µM in the experiment with IGROV1 ovarian; 13.9 µM in the experiment with OVCAR-8 ovarian; 11.1 µM in the experiment with DU-145 prostate; 16.7 µM with 786-0 renal; 15.9 µM with UACC-62 melanoma; 14.4 µM with PC-3 prostate. For the same compound, the TGI in the experiment with HCC-2998 colon turned out to be 14.8 µM; in the experiment with T-47D breast, 17 µM; in the experiment with UO-31 renal it was 14.3 µM; with NCI-H226 lung, 22.9 µM.
Turning to `CO/N=C1/NC(=O)/C(=C/c2ccc3ncccc3c2)S1`, the GI50 in the experiment on IGROV1 ovarian is 4.78 µM; with OVCAR-8 ovarian, greater than 22.6 µM; in the experiment on DU-145 prostate it was 12.3 µM; in the experiment with 786-0 renal, 23.4 µM; in the experiment with UACC-62 melanoma, 8.06 µM; in the experiment with PC-3 prostate, 11.7 µM. Besides, the GI50 with HCC-2998 colon was greater than 25 µM; in the experiment with T-47D breast, 4.46 µM; with UO-31 renal, 4.99 µM; in the experiment with NCI-H226 lung it was 6.5 µM. Besides, the TGI with IGROV1 ovarian is 15.9 µM; in the experiment with OVCAR-8 ovarian, greater than 25 µM; with DU-145 prostate, greater than 25 µM; with 786-0 renal, greater than 25 µM; in the experiment with UACC-62 melanoma, greater than 25 µM; in the experiment with PC-3 prostate, greater than 25 µM. In addition, the TGI is greater than 25 µM in the experiment with HCC-2998 colon, greater than 20.2 µM in the experiment with T-47D breast, greater than 22.7 µM in the experiment on UO-31 renal and greater than 25 µM with NCI-H226 lung.
For `O=[N+]([O-])c1cc(Br)cc2c1[nH]c1ccc(Br)cc12`, the GI50 in the experiment on IGROV1 ovarian was 2.74 µM; in the experiment with OVCAR-8 ovarian, 11.4 µM; with DU-145 prostate it was 6.17 µM; in the experiment with 786-0 renal, 5.47 µM; in the experiment with UACC-62 melanoma, 22.1 µM; with PC-3 prostate, 10.2 µM. In addition, the GI50 with HCC-2998 colon was 9.86 µM; in the experiment with T-47D breast, 6.76 µM; in the experiment on UO-31 renal it was 2.08 µM; in the experiment on NCI-H226 lung it was 3.24 µM. Further, the TGI is 38.7 µM in the experiment on IGROV1 ovarian; greater than 100 µM with OVCAR-8 ovarian; 76.6 µM in the experiment on DU-145 prostate; 27.4 µM in the experiment on 786-0 renal; greater than 100 µM in the experiment with UACC-62 melanoma; greater than 100 µM in the experiment on PC-3 prostate. The TGI with HCC-2998 colon was greater than 100 µM; in the experiment with T-47D breast, 77.9 µM; in the experiment with UO-31 renal, 10.4 µM; in the experiment on NCI-H226 lung, 21.9 µM.
For `O=C(Nc1cc(Cl)ccc1O)c1cccc(NC2=C(Cl)C(=O)N(Cc3ccccc3)C2=O)c1`, the GI50 was 35.4 µM in the experiment on IGROV1 ovarian; 14.5 µM in the experiment on OVCAR-8 ovarian; 60.7 µM in the experiment with DU-145 prostate; 22.7 µM with 786-0 renal; 31.7 µM in the experiment on UACC-62 melanoma; 19.2 µM with PC-3 prostate. The GI50 with HCC-2998 colon was 17 µM; with T-47D breast, 29 µM; with UO-31 renal, 38.3 µM; in the experiment with NCI-H226 lung, 17.4 µM. Besides, the TGI in the experiment with IGROV1 ovarian was greater than 100 µM; in the experiment with OVCAR-8 ovarian, 38.8 µM; in the experiment on DU-145 prostate it was greater than 100 µM; in the experiment with 786-0 renal, 50.9 µM; in the experiment with UACC-62 melanoma, greater than 100 µM; in the experiment with PC-3 prostate, 46.1 µM. Moreover, the TGI with HCC-2998 colon was 32.1 µM; with T-47D breast, greater than 100 µM; with UO-31 renal it was greater than 100 µM; in the experiment with NCI-H226 lung, 36.6 µM.
Turning to `COc1ccc(C(=O)c2cc(OC)c(OC)c(OC)c2)cc1O`, the GI50 with IGROV1 ovarian was 0.278 µM; in the experiment with OVCAR-8 ovarian it was 0.0427 µM; with DU-145 prostate it was 0.0387 µM; in the experiment on 786-0 renal, 0.914 µM; in the experiment on UACC-62 melanoma, 1.1 µM; with PC-3 prostate, 0.0285 µM. Moreover, the GI50 in the experiment on HCC-2998 colon was 0.0832 µM; in the experiment on T-47D breast it was 26 µM; in the experiment with UO-31 renal it was 0.296 µM; in the experiment on NCI-H226 lung, 4.76 µM. The TGI in the experiment with IGROV1 ovarian, in the experiment on OVCAR-8 ovarian, with DU-145 prostate, in the experiment on 786-0 renal, in the experiment on UACC-62 melanoma and with PC-3 prostate was greater than 100 µM throughout. Also, the TGI in the experiment on HCC-2998 colon, in the experiment on T-47D breast, with UO-31 renal and with NCI-H226 lung was greater than 100 µM throughout.
On to `Cn1c2ccc([N+](=O)[O-])cc2c(=O)c2c(O)cc(O)cc21`, for which the TGI in the experiment on IGROV1 ovarian was 45.3 µM; with OVCAR-8 ovarian, 25.9 µM; in the experiment with DU-145 prostate it was greater than 100 µM; in the experiment with 786-0 renal, 47 µM; with UACC-62 melanoma, greater than 100 µM; in the experiment on PC-3 prostate, greater than 100 µM. Also, the TGI with HCC-2998 colon, in the experiment on T-47D breast, in the experiment on UO-31 renal and in the experiment with NCI-H226 lung was greater than 100 µM in each case.
